The target in this assay is T1, HDM2 (Homo sapiens, UniProt Q00987).
T1 construct: Thioredoxin (N); made in house; host or cells: E. coli strain BL21(DE3)Rosetta
Nature of the assay: FRET assay (HDM2 inhibition; method not described in this part). It is filed as binding.

In general, IC50 refers to the point on the concentration scale where inhibition reaches its midpoint.

T1 sequence (Q00987 17-125): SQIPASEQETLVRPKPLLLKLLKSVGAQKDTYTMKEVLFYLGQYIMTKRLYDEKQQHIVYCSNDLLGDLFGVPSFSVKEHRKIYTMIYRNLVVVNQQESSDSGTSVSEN

The compound `CCOc1ccc(C(F)(F)F)cc1Cn1c(-c2cccc(C)c2)nc2nc(C(=O)O)nc(N[C@H](C)C3CC3)c21` [Example 5.5, 6-{[(1R)-1-cyclopropylethyl]amino}-7-(2-ethoxy-5-(trifluoromethyl)benzyl)-8-(3-methylphenyl)-7H-purine-2-carboxylic acid] displayed an IC50 (Table 5) of 2740 nM.
`Cc1cccc(-c2nc3nc(C(=O)O)nc(N[C@H](C)C4CCC4)c3n2Cc2ccc(C(F)(F)F)cc2F)c1` [Example 5.17, 6-{[(1R)-1-cyclobutylethyl]amino}-7-[2-fluoro-4-(trifluoromethyl)benzyl]-8-(3-methylphenyl)-7H-purine-2-carboxylic acid] registered an IC50 (Table 5) of 74.3 nM.
In the case of `C[C@@H](Nc1nc(C(=O)O)nc2nc(-c3ccc4ncccc4c3)n(Cc3ccc(C(F)(F)F)cc3)c12)C1CC1` [Example 2.69, 6-{[(1R)-1-cyclopropylethyl]amino}-8-quinolin-6-yl-7-[4-(trifluoromethyl)benzyl]-7H-purine-2-carboxylic acid], under “Table 2”, the IC50 worked out at 296 nM.
For the compound `CCOc1ccnc(-c2nc3nc(C(=O)O)nc(N[C@H](C)C4CCC4)c3n2Cc2ccc(C(F)(F)F)cc2)c1` [Example 1.43, 6-{[(1R)-1-cyclobutylethyl]amino}-8-(4-ethoxypyridin-2-yl)-7-[4-(trifluoromethyl)benzyl] - 7H-purine-2-carboxylic acid], for the setting “Table 1”, the IC50 is 11.8 nM.
For the setting “Table 1”, `C[C@@H](Nc1nc(C(=O)O)nc2nc(-c3cc(C(C)(C)O)ccn3)n(Cc3ccc(C(F)(F)F)cc3)c12)C1CCC1` [Example 1.27, 6-{[(1R)-1-cyclobutylethyl]amino}-8-[4-(1-hydroxy-1-methylethyl)pyridin-2-yl]-7-[4-(trifluoromethyl)benzyl]-7H-purine-2-carboxylic acid] yielded an IC50 of 9.41 nM.
Where the note is “Table 1”, `CC(C)c1ccnc(-c2nc3nc(C(=O)O)nc(N[C@H](C)C4CCC4)c3n2Cc2ccc(OC(F)(F)F)c(F)c2)c1` [Example 1.71, 6-{[(1R)-1-cyclobutylethyl]amino}-7-[3-fluoro-4-(trifluoromethoxy)benzyl]-8-[4-(1-methylethyl)pyridin-2-yl]-7H-purine-2-carboxylic acid] showed an IC50 of 9.51 nM.
In turn, `C[C@@H](Nc1nc(C(=O)O)nc2nc(-c3cc(C(F)F)cc(C(F)F)n3)n(Cc3ccc(C(F)(F)F)cc3)c12)C1CCC1` [Example 1.64, 8-[4,6-bis(difluoromethyl)pyridin-2-yl]-6-{[(1R)-1-cyclobutylethyl]amino}-7-[4-(trifluoromethyl)benzyl] - 7H-purine-2-carboxylic acid] returned an IC50 (Table 1) of 22.9 nM.
For the compound `CCc1cccc(-c2nc3nc(C(=O)O)nc(N[C@H](C)C4CC4)c3n2Cc2ccc(C(F)(F)F)cc2)c1` [Example 2.16, 6-{[(1R)-1-cyclopropylethyl]amino}-8-(3-ethylphenyl)-7-[4-(trifluoromethyl)benzyl]-7H-purine-2-carboxylic acid], under “Table 2”, the midpoint of inhibition, the IC50, lay at 180 nM.
For the compound `Cc1ccc(OCCCO)c(-c2nc3nc(C(=O)O)nc(N[C@H](C)C4CC4)c3n2Cc2ccc(Cl)cc2)c1` [Example 4.20, (R)-7-(4-chlorobenzyl)-6-((1-cyclopropylethyl)amino)-8-(2-(3-hydroxypropoxy)-5-methylphenyl)-7H-purine-2-carboxylic acid], it took 112 nM to reach half-maximal inhibition (Table 4) (IC50).
As to `C[C@@H](Nc1nc(C(=O)O)nc2nc(-c3cc(-c4ccccc4)ccn3)n(Cc3ccc(C(F)(F)F)cc3)c12)C1CCC1` [Example 1.26, 6-{[(1R)-1-cyclobutylethyl]amino}-8-(4-phenylpyridin-2-yl)-7-[4-(trifluoromethyl)benzyl] - 7H-purine-2-carboxylic acid], it took 12.1 nM to reach half-maximal inhibition (Table 1) (IC50).
For the setting “Table 1”, `Cc1c(C(C)C)ccnc1-c1nc2nc(C(=O)O)nc(N[C@H](C)C3CCC3)c2n1Cc1ccc(C(F)(F)F)cc1` [Example 1.87, 6-{[(1R)-1-cyclobutylethyl]amino}-8-[3-methyl-4-(1-methylethyl)pyridin-2-yl]-7-[4-(trifluoromethyl)benzyl]-7H-purine-2-carboxylic acid] returned an IC50 of 59 nM.
On the same count and under the same terms, then `Cc1cc(OC(F)(F)F)ccc1-c1nc2nc(C(=O)O)nc(N[C@H](C)C3CCC3)c2n1Cc1ccc(C(F)(F)F)cc1` [Example 1.129, 6-{[(1R)-1-cyclobutylethyl]amino}-8-[2-methyl-4-(trifluoromethoxy)phenyl]-7-[4-(trifluoromethyl)benzyl]-7H-purine-2-carboxylic acid], with 46 nM.
Take `C[C@@H](Nc1nc(C(=O)O)nc2nc(-c3cnc(N(C)C)nc3)n(Cc3ccc(C(F)(F)F)cc3)c12)C1CC1` [Example 2.70, 6-{[(1R)-1-cyclopropylethyl]amino}-8-[2-(dimethylamino)pyrimidin-5-yl]-7-[4-(trifluoromethyl)benzyl]-7H-purine-2-carboxylic acid]: the IC50 (Table 2) came to 1020 nM.
Compound `COc1ccc(Cn2c(-c3cccc(C)c3)nc3nc(C(=O)O)nc(N[C@H](C)C4CCC4)c32)cc1` [Example 5.19, 6-{[(1R)-1-cyclobutylethyl]amino}-7-(4-methoxybenzyl)-8-(3-methylphenyl)-7H-purine-2-carboxylic acid] came in with an IC50 (Table 5) of 582 nM.
`Cc1ccc(C)c(-c2nc3nc(C(=O)O)nc(N[C@H](C)C4CC4)c3n2Cc2ccc(Cl)cc2)c1` [Example 2.12, 7-(4-chlorobenzyl)-6-{[(1R)-1-cyclopropylethyl]amino}-8-(2,5-dimethylphenyl)-7H-purine-2-carboxylic acid] had an IC50 (Table 2) of 199 nM.
`CC(C)c1ccnc(-c2nc3nc(C(=O)O)nc(N[C@@H](C)C4CCC4)c3n2Cc2ccc(C(F)(F)F)cc2)c1` [Example 1.50]: the IC50 (Table 1) came to 128 nM.
For the setting “Table 2”, `C[C@@H](Nc1nc(C(=O)O)nc2nc(-c3cnc(O)c(F)c3)n(Cc3ccc(C(F)(F)F)cc3)c12)C1CC1` [Example 2.51, 6-{[(1R)-1-cyclopropylethyl]amino}-8-(5-fluoro-6-hydroxypyridin-3-yl)-7-[4-(trifluoromethyl)benzyl]-7H-purine-2-carboxylic acid] came in with an IC50 of 1230 nM.
For `CC(C)c1cc(-c2nc3nc(C(=O)O)nc(N[C@H](C)C4CCC4)c3n2Cc2ccc(C(F)(F)F)cc2)ncc1F` [Example 1.10, (R)-6-((1-cyclobutylethyl)amino)-8-(5-fluoro-4-isopropylpyridin-2-yl)-7-(4-(trifluoromethyl)benzyl)-7H-purine-2-carboxylic acid], for the setting “Table 1”, half-maximal inhibition (IC50) required 3.96 nM.
Regarding `CC(C)c1cccc(-c2nc3nc(C(=O)O)nc(N[C@H](C)C4CC4)c3n2Cc2ccc(C(F)(F)F)cc2)c1` [Example 2.18, 6-{[(1R)-1-cyclopropylethyl]amino}-8-[3-(1-methylethyl)phenyl]-7-[4-(trifluoromethyl)benzyl]-7H-purine-2-carboxylic acid], under “Table 2”, half-maximal inhibition (IC50) required 123 nM.
Compound `C[C@@H](Nc1nc(C(=O)O)nc2nc(-c3cc(Cl)ccc3Cl)n(Cc3ccc(C(F)(F)F)cc3)c12)C1CCC1` [Example 2.63, 6-{[(1R)-1-cyclobutylethyl]amino}-8-(2,5-dichlorophenyl)-7-[4-(trifluoromethyl)benzyl]-7H-purine-2-carboxylic acid] returned an IC50 (Table 2) of 10.9 nM.
`C[C@@H](Nc1nc(C(=O)O)nc2nc(-c3ccc(C(C)(C)C)cc3)n(Cc3ccc(C(F)(F)F)cc3)c12)C1CC1` [Example 2.32, 8-(4-tert-butylphenyl)-6-{[(1R)-1-cyclopropylethyl]amino}-7-[4-(trifluoromethyl)benzyl]-7H-purine-2-carboxylic acid]: the concentration for half-maximal inhibition (IC50) (Table 2) was 1950 nM.
Same read-out and setting: the same measure for `C[C@@H](Nc1nc(C(=O)O)nc2nc(-c3cccc(C(F)(F)F)c3)n(Cc3ccc(C(F)(F)F)cc3)c12)C1CCC1` [Example 2.38, 6-{[(1R)-1-cyclobutylethyl]amino}-7-[4-(trifluoromethyl)benzyl]-8-[3-(trifluoromethyl)phenyl]-7H-purine-2-carboxylic acid]: 11.2 nM.
For the compound `C[C@@H](Nc1nc(C(=O)O)nc2nc(-c3ccc(OC(F)F)cc3)n(Cc3ccc(C(F)(F)F)cc3)c12)C1CCC1` [Example 1.100, 6-{[(1R)-1-cyclobutylethyl]amino}-8-[4-(difluoromethoxy)phenyl]-7-[4-(trifluoromethyl)benzyl]-7H-purine-2-carboxylic acid], the IC50 (Table 1) is 51.8 nM.
As to `CC(C)Oc1cccc(-c2nc3nc(C(=O)O)nc(N[C@H](C)C4CC4)c3n2Cc2ccc(C(F)(F)F)cc2)c1` [Example 1.98, 6-{[(1R)-1-cyclopropylethyl]amino} -8-[3-(1-methylethoxy)phenyl]-7-[4-(trifluoromethyl)benzyl]-7H-purine-2-carboxylic acid], the IC50 (Table 1) stood at 316 nM.
Turning to `C[C@@H](Nc1nc(C(=O)O)nc2nc(-c3ccc(C(F)(F)F)cc3)n(Cc3ccc(C(F)(F)F)cc3)c12)C1CC1` [Example 2.20, 6-{[(1R)-1-cyclopropylethyl]amino}-7-[4-(trifluoromethyl)benzyl]-8-[4-(trifluoromethyl)phenyl]-7H-purine-2-carboxylic acid], for the setting “Table 2”, the IC50 stood at 1410 nM.
In the case of `C[C@@H](Nc1nc(C(=O)O)nc2nc(-c3ccc4sccc4c3)n(Cc3ccc(Cl)cc3)c12)C1CC1` [Example 2.7, 8-(1-benzothiophen-5-yl)-7-(4-chlorobenzyl)-6-{[(1R)-1-cyclopropylethyl]amino}-7H-purine-2-carboxylic acid], for the setting “Table 2”, the IC50 was determined as 259 nM.
On to `Cc1cccc(-c2nc3nc(C(=O)O)nc(N[C@H](C)C4CC4)c3n2Cc2ccc(F)c(C(F)(F)F)c2)c1` [Example 5.4, 6-{[(1R)-1-cyclopropylethyl]amino}-7-[4-fluoro-3-(trifluoromethyl)benzyl]-8-(3-methylphenyl)-7H-purine-2-carboxylic acid], for which half-maximal inhibition (Table 5) (IC50) required 4140 nM.
Regarding `C[C@@H](Nc1nc(C(=O)O)nc2nc(-c3ccc(Cl)c(C(F)(F)F)c3)n(Cc3ccc(C(F)(F)F)cc3)c12)C1CCC1` [Example 1.115, 8-[4-chloro-3-(trifluoromethyl)phenyl]-6-{[(1R)-1-cyclobutylethyl]amino}-7-[4-(trifluoromethyl)benzyl]-7H-purine-2-carboxylic acid], for the setting “Table 1”, 17.3 nM corresponded to half-maximal inhibition (IC50).
In turn, `COc1ccc2cc(-c3nc4nc(C(=O)O)nc(N[C@H](C)C5CCC5)c4n3Cc3ccc(C(F)(F)F)cc3)ccc2c1` [Example 1.133, 6-{[(1R)-1-cyclobutylethyl]amino}-8-(6-methoxynaphthalen-2-yl)-7-[4-(trifluoromethyl)benzyl]-7H-purine-2-carboxylic acid] had a half-maximal inhibitory concentration (IC50) (Table 1) of 73.3 nM.

The values are drawn from EP2951180B1, “2,6,7,8 SUBSTITUTED PURINES AS HDM2 INHIBITORS” (Merck Sharp & Dohme Corp., priority 2013, dated 2014).
